Laboratory results taken from patent US20110098177A1, “METHODS AND COMPOSITIONS OF PLANT MICRONUTRIENTS” (NOVUS INTERNATIONAL INC., priority 2006, published 2011).

Columns and labels:
Format in all cases: in vivo
[1] = system: soybean plants (Asgrow 1102); assay: Visual greenness ratings (1-5 scale) of soybean plants, open-field (Examples 11-12); settings: for Greenness of soybean plants compared to control, statement: Foxhome site, 29 July rating
Protocol: The following experiments were performed on soybean plants growing in open-field plots during the summer and fall of 2008 at two production fields in West Central Minnesota. […] Trial design was a randomized complete block with 4 replications. Each plot measured 10' by 30' and consisted of five 22'' rows. Although all five rows of each plot were treated, only the center three rows (25' in length) of each plot were machine harvested. The two fields selected for these studies had historical Iron Deficiency Chlorosis (IDC) issues. The two field sites were planted by farmers with elite Roundup Ready commodity type soybean varieties with IDC tolerance (Asgrow 1102, Monsanto Corp.). […] BIOX-M was applied at a rate of 1.12 kg Mn/ha. […] All V4 treatments were applied in 10 gallons per acre of water with a backpack sprayer with a hand boom designed to “band” apply product directly to the plant row. Three nozzles with ConeJet TXVS-2 tips were oriented on either side and over the top of each row. This maximized the applied product to the plant tissue itself and minimized application of product to the soil surface. […] The V6 treatments (where applicable) were applied in 20 gallons per acre of water to increase the suspension of the BIOX products.

[2] = system: soybean plants (Asgrow 1102); assay: ICP-MS micronutrient content of soybean trifoliates (Examples 11-12); set-up: Micronutrient content from ICP-MS analysis: Mn: unit not given here; settings: for Micronutrient content from ICP-MS analysis: Fe: in ppm (unit assumed)
Protocol: The following experiments were performed on soybean plants growing in open-field plots during the summer and fall of 2008 at two production fields in West Central Minnesota. […] Trial design was a randomized complete block with 4 replications. Each plot measured 10' by 30' and consisted of five 22'' rows. Although all five rows of each plot were treated, only the center three rows (25' in length) of each plot were machine harvested. The two fields selected for these studies had historical Iron Deficiency Chlorosis (IDC) issues. The two field sites were planted by farmers with elite Roundup Ready commodity type soybean varieties with IDC tolerance (Asgrow 1102, Monsanto Corp.). […] BIOX-M was applied at a rate of 1.12 kg Mn/ha. […] All V4 treatments were applied in 10 gallons per acre of water with a backpack sprayer with a hand boom designed to “band” apply product directly to the plant row. Three nozzles with ConeJet TXVS-2 tips were oriented on either side and over the top of each row. This maximized the applied product to the plant tissue itself and minimized application of product to the soil surface. […] The V6 treatments (where applicable) were applied in 20 gallons per acre of water to increase the suspension of the BIOX products. […] The harvested plants were dried, ground, and subjected to Inductively Coupled Plasma-Mass Spectrometry (ICP-MS) analysis to determine plant micronutrient content.

[3] = system: soybean plants (Asgrow 1102); assay: Soybean seed yield (Examples 11-12)
Protocol: (§1) The following experiments were performed on soybean plants growing in open-field plots during the summer and fall of 2008 at two production fields in West Central Minnesota. […] Trial design was a randomized complete block with 4 replications. Each plot measured 10' by 30' and consisted of five 22'' rows. Although all five rows of each plot were treated, only the center three rows (25' in length) of each plot were machine harvested. The two fields selected for these studies had historical Iron Deficiency Chlorosis (IDC) issues. The two field sites were planted by farmers with elite Roundup Ready commodity type soybean varieties with IDC tolerance (Asgrow 1102, Monsanto Corp.). […] BIOX-M was applied at a rate of 1.12 kg Mn/ha. […] All V4 treatments were applied in 10 gallons per acre of water with a backpack sprayer with a hand boom designed to “band” apply product directly to the plant row. Three nozzles with ConeJet TXVS-2 tips were oriented on either side and over the top of each row. This maximized the applied product to the plant tissue itself and minimized application of product to the soil surface. […] The V6 treatments (where applicable) were applied in 20 gallons per acre of water to increase the suspension of the BIOX products. Soybean seed was harvested after soybean maturity was reached (3 October at […], and 17 Oct. 2008 at Foxhome) and seed yields for each experimental treatment group were determined. In addition, seed samples from each treatment were dried to 13% moisture content, then analyzed for protein and oil content.

[4] = system: soybean plants (Asgrow 1102); assay: Soybean seed protein and oil content (Examples 11-12); settings: in %
Protocol: as §1

CSCCC(O)C(=O)[O-].CSCCC(O)C(=O)[O-].[Mn+2] (stereo not shown) [BIOX-M, Mn-HMTBA]
Mean visual greenness scores (1-5) ([1]; 7.0 kg/ha, V4, Jul. 15, 2008 Rating, Foxhome): 2.5
Mean visual greenness scores (1-5) ([1]; 7.0 kg/ha, V4, Jul. 15, 2008 Rating, Renville): 2.9
Mean visual greenness scores (1-5) ([1]; 7.0 kg/ha, V4, Jul. 29, 2008 Rating, Foxhome): 1.0 C
Mean visual greenness scores (1-5) ([1]; 7.0 kg/ha, V4, Jul. 29, 2008 Rating, Renville): 1.3
Greenness of soybean plants compared to control, statement ([1]; BIOX-M 1.12 kg Mn/ha): small but significant increase in greenness
Micronutrient content from ICP-MS analysis: Mn ([2]; 7.0 kg/ha, V4, Foxhome): 78.31
Micronutrient content from ICP-MS analysis: Fe ([2]; 7.0 kg/ha, V4, Foxhome): 90.52
Micronutrient content from ICP-MS analysis: Mn ([2]; 7.0 kg/ha, V4, Renville): 88.64
Micronutrient content from ICP-MS analysis: Fe ([2]; 7.0 kg/ha, V4, Renville): 99.40
Yield ([3]; 7.0 kg/ha, V4, Foxhome): 43.63 Bu/A
Yield ([3]; 7.0 kg/ha, V4, Renville): 24.15 Bu/A
Oil content (13% moisture) ([4]; 7.0 kg/ha, V4, Foxhome): 18.28
Protein content (13% moisture) ([4]; 7.0 kg/ha, V4, Foxhome): 32.90
Oil content (13% moisture) ([4]; 7.0 kg/ha, V4, Renville): 19.97
Protein content (13% moisture) ([4]; 7.0 kg/ha, V4, Renville): 31.97

Fe-HMTBA [BIOX-Fe]
Mean visual greenness scores (1-5) ([1]; 0.558 kg/ha, V4, V6, Jul. 15, 2008 Rating, Foxhome): 2.4
Mean visual greenness scores (1-5) ([1]; 0.558 kg/ha, V4, V6, Jul. 15, 2008 Rating, Renville): 2.4
Mean visual greenness scores (1-5) ([1]; 0.558 kg/ha, V4, V6, Jul. 29, 2008 Rating, Foxhome): 1.0 C
Mean visual greenness scores (1-5) ([1]; 0.558 kg/ha, V4, V6, Jul. 29, 2008 Rating, Renville): 1.1
Mean visual greenness scores (1-5) ([1]; 0.558 kg/ha, V4, Jul. 15, 2008 Rating, Foxhome): 2.8
Mean visual greenness scores (1-5) ([1]; 0.558 kg/ha, V4, Jul. 15, 2008 Rating, Renville): 2.6
Mean visual greenness scores (1-5) ([1]; 0.558 kg/ha, V4, Jul. 29, 2008 Rating, Foxhome): 1.4 B, C
Mean visual greenness scores (1-5) ([1]; 0.558 kg/ha, V4, Jul. 29, 2008 Rating, Renville): 1.1
Mean visual greenness scores (1-5) ([1]; 1.12 kg/ha, V4, V6, Jul. 15, 2008 Rating, Foxhome): 2.6
Mean visual greenness scores (1-5) ([1]; 1.12 kg/ha, V4, V6, Jul. 15, 2008 Rating, Renville): 2.6
Mean visual greenness scores (1-5) ([1]; 1.12 kg/ha, V4, V6, Jul. 29, 2008 Rating, Foxhome): 1.5 A, B, C
Mean visual greenness scores (1-5) ([1]; 1.12 kg/ha, V4, V6, Jul. 29, 2008 Rating, Renville): 1.4
Mean visual greenness scores (1-5) ([1]; 1.12 kg/ha, V4, Jul. 15, 2008 Rating, Foxhome): 2.5
Mean visual greenness scores (1-5) ([1]; 1.12 kg/ha, V4, Jul. 15, 2008 Rating, Renville): 2.1
Mean visual greenness scores (1-5) ([1]; 1.12 kg/ha, V4, Jul. 29, 2008 Rating, Foxhome): 1.0 C
Mean visual greenness scores (1-5) ([1]; 1.12 kg/ha, V4, Jul. 29, 2008 Rating, Renville): 1.0
Greenness of soybean plants compared to control, statement ([1]; higher rate (269 g Fe/ha) at V4 only): significantly increased the greenness in treated plants
Greenness of soybean plants compared to control, statement ([1]; higher rate (269 g Fe/ha) at both V4 and V6): no change in greenness compared to control
Toxic effects on soybean plants (in words) ([1]; iron concentrations 0.094% - 0.376% by weight): without toxic effects
Greenness of soybean plants compared to control, statement ([1]; lower rate (134 g Fe/ha) at V4): had no effect on greenness
Greenness of soybean plants compared to control, statement ([1]; lower rate (134 g Fe/ha) at both V4 and V6): significantly increased the greenness of the soybean plants
Micronutrient content from ICP-MS analysis: Mn ([2]; 0.558 kg/ha, V4, V6, Foxhome): 76.21
Micronutrient content from ICP-MS analysis: Fe ([2]; 0.558 kg/ha, V4, V6, Foxhome): 88.30
Micronutrient content from ICP-MS analysis: Mn ([2]; 0.558 kg/ha, V4, V6, Renville): 96.44
Micronutrient content from ICP-MS analysis: Fe ([2]; 0.558 kg/ha, V4, V6, Renville): 96.26
Micronutrient content from ICP-MS analysis: Mn ([2]; 0.558 kg/ha, V4, Foxhome): 81.82
Micronutrient content from ICP-MS analysis: Fe ([2]; 0.558 kg/ha, V4, Foxhome): 83.38
Micronutrient content from ICP-MS analysis: Mn ([2]; 0.558 kg/ha, V4, Renville): 88.29
Micronutrient content from ICP-MS analysis: Fe ([2]; 0.558 kg/ha, V4, Renville): 98.39
Micronutrient content from ICP-MS analysis: Mn ([2]; 1.12 kg/ha, V4, V6, Foxhome): 87.67
Micronutrient content from ICP-MS analysis: Fe ([2]; 1.12 kg/ha, V4, V6, Foxhome): 83.35
Micronutrient content from ICP-MS analysis: Mn ([2]; 1.12 kg/ha, V4, V6, Renville): 89.00
Micronutrient content from ICP-MS analysis: Fe ([2]; 1.12 kg/ha, V4, V6, Renville): 98.74
Micronutrient content from ICP-MS analysis: Mn ([2]; 1.12 kg/ha, V4, Foxhome): 72.70
Micronutrient content from ICP-MS analysis: Fe ([2]; 1.12 kg/ha, V4, Foxhome): 84.93
Micronutrient content from ICP-MS analysis: Mn ([2]; 1.12 kg/ha, V4, Renville): 76.15
Micronutrient content from ICP-MS analysis: Fe ([2]; 1.12 kg/ha, V4, Renville): 97.42
Yield ([3]; 0.558 kg/ha, V4, V6, Foxhome): 46.01 Bu/A
Yield ([3]; 0.558 kg/ha, V4, V6, Renville): 27.65 Bu/A
Yield ([3]; 0.558 kg/ha, V4, Foxhome): 43.17 Bu/A
Yield ([3]; 0.558 kg/ha, V4, Renville): 27.92 Bu/A
Yield ([3]; 1.12 kg/ha, V4, V6, Foxhome): 43.43 Bu/A
Yield ([3]; 1.12 kg/ha, V4, V6, Renville): 26.62 Bu/A
Yield ([3]; 1.12 kg/ha, V4, Foxhome): 44.23 Bu/A
Yield ([3]; 1.12 kg/ha, V4, Renville): 27.43 Bu/A
Oil content (13% moisture) ([4]; 0.558 kg/ha, V4, V6, Foxhome): 18.42
Protein content (13% moisture) ([4]; 0.558 kg/ha, V4, V6, Foxhome): 32.73
Oil content (13% moisture) ([4]; 0.558 kg/ha, V4, V6, Renville): 20.16
Protein content (13% moisture) ([4]; 0.558 kg/ha, V4, V6, Renville): 32.04
Oil content (13% moisture) ([4]; 0.558 kg/ha, V4, Foxhome): 18.46
Protein content (13% moisture) ([4]; 0.558 kg/ha, V4, Foxhome): 32.60
Oil content (13% moisture) ([4]; 0.558 kg/ha, V4, Renville): 20.12
Protein content (13% moisture) ([4]; 0.558 kg/ha, V4, Renville): 31.93
Oil content (13% moisture) ([4]; 1.12 kg/ha, V4, V6, Foxhome): 18.40
Protein content (13% moisture) ([4]; 1.12 kg/ha, V4, V6, Foxhome): 32.68
Oil content (13% moisture) ([4]; 1.12 kg/ha, V4, V6, Renville): 20.10
Protein content (13% moisture) ([4]; 1.12 kg/ha, V4, V6, Renville): 32.36
Oil content (13% moisture) ([4]; 1.12 kg/ha, V4, Foxhome): 18.48
Protein content (13% moisture) ([4]; 1.12 kg/ha, V4, Foxhome): 32.47
Oil content (13% moisture) ([4]; 1.12 kg/ha, V4, Renville): 20.28
Protein content (13% moisture) ([4]; 1.12 kg/ha, V4, Renville): 32.23
